Experimental data: US20240352046A1, “ECTONUCLEOTIDE PYROPHOSPHATASE-PHOSPHODIESTERASE-1 (ENPP1) INHIBITORS AND USES THEREOF” (1cBio, Inc., priority 2020, published 2024)

Molecular target: ENPP-1 (Ectonucleotide Pyrophosphatase/Phosphodiesterase 1) (Homo sapiens (Human), UniProt P22413)
Experiment: ENPP1 inhibition assay (AMP Glo, cGAMP substrate)
Assay type: biochemical
Conditions: cGAMP 20 μM substrate, ENPP1 1 nM
Description: IC50 values of compounds against ENPP-1 (Ectonucleotide Pyrophosphatase/Phosphodiesterase 1) were determined at Integral BioSciences (India) using AMP Glo (Promega, Cat #V5011). Assay was performed in a 30 μL final volume in a white 96-well Half Area plate (Costar,Cat #3693). Dose response curve for the compounds were prepared in duplicates with starting conc. at 5 μM and a three-fold titration was performed. The reaction buffer consisted of 50 mM Tris (pH 8.0), 0.5 mM CaCl2), 1 μM ZnCl2, 250 mM NaCl and 0.1 mg/ml BSA. To the compound dilution, 15 μL of ENPP1 enzyme (R&D Systems; Cat #6136-EN-010) was added to each well (final conc. 1 nM) and the mix was pre-incubated for 15 min at RT. An equal volume (15 μL) containing cGAMP (Sigma, Cat #SML-1229) (final conc. 20 μM) was added to initiate the enzyme reaction and the reaction was incubated for 30 min at RT. The reaction was then stopped by heating at 90° C. for 3 minutes. 10 μl of reaction was then transferred to 384 well white, medium binding plates (Grenier, Cat #781075) to which 10 μl of AMP-Glo Reagent 1 was added and mixed well and incubated for 1 hour at 25° C. Following 60 min incubation, 20 μL of detection mixture was added to the enzyme reaction bringing the final volume to 40 μL. The reaction was further incubated for 60 min at RT after which the plates were read using BioTek Plate reader.
Analysis was done using the standard curve by non-linear regression, variable slope inhibitor curve fits (Graph-Pad Prism) and IC50's of compounds were determined wherever possible.

Sequence of ENPP-1 (Ectonucleotide Pyrophosphatase/Phosphodiesterase 1) (P22413 whole entry): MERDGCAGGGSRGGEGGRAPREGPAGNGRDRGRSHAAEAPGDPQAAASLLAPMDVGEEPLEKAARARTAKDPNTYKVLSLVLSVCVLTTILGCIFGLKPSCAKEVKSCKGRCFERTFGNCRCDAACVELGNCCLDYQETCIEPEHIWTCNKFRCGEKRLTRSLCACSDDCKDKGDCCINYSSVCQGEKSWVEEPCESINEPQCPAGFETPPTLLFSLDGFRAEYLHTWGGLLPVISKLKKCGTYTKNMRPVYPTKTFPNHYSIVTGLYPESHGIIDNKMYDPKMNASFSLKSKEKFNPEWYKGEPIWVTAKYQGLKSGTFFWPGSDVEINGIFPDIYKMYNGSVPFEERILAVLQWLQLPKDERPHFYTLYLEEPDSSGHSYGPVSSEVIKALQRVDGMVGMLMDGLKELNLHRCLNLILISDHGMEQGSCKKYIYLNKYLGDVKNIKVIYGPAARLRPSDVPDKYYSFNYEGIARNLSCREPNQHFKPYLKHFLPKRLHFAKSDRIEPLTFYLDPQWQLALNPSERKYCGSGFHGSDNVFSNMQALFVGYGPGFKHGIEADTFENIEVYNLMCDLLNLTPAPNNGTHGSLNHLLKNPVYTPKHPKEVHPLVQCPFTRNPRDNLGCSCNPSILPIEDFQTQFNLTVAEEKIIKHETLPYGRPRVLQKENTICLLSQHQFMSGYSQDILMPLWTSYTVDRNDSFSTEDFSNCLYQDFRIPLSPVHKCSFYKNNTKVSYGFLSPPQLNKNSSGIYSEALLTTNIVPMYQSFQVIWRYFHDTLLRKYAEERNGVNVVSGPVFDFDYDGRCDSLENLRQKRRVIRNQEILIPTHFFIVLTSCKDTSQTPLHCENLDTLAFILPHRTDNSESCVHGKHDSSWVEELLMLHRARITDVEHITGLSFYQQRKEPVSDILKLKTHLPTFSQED

`Cc1cc(Cl)n2ncnc(N3CC4(CC(N(C[C@@H](O)C(F)(F)F)S(N)(=O)=O)C4)C3)c12` (stereo in doubt) [Compound 1.125, N-(2-(7-chloro-5-methylpyrrolo[2,1-f][1,2,4]triazin-4-yl)-2-azaspiro[3.3]heptan-6-yl)-N-(3,3,3-trifluoro-2-hydroxypropyl)sulfamide] was tested. Which IC50 did it give?
Its IC50 is 0.05 µM.

For `Cc1cc(Cl)n2ncnc(N3CC4(CC(N(C[C@H](O)C(F)(F)F)S(N)(=O)=O)C4)C3)c12` (stereo in doubt) [Compound 1.126, N-(2-(7-chloro-5-methylpyrrolo[2,1-f][1,2,4]triazin-4-yl)-2-azaspiro[3.3]heptan-6-yl)-N-(3,3,3-trifluoro-2-hydroxypropyl)sulfamide], which IC50 is on record?
Its IC50 is 0.023 µM.

`COc1cc2[nH]c(=O)nc(N3CC(CCNS(N)(=O)=O)C3)c2cc1OC` [Compound 1.2, (2-(1-(6,7-dimethoxy-2-oxo-1,2-dihydroquinazolin-4-yl)azetidin-3-yl)ethyl)amiosulfonamide] was tested. Which IC50 did it give?
The IC50 was greater than 5 µM.

Which IC50 does the source give for `COc1cc2c(N3CC(CCNS(N)(=O)=O)C3)ncnc2cn1` [Compound 1.3, (2-(1-(6-methoxypyrido[3,4-d]pyrimidin-4-yl)azetidin-3-yl)ethyl)aminisulfonamide] here?
Its IC50 is 0.22 µM.

How did the IC50 turn out when `COc1cccc2c(N3CC(CCNS(N)(=O)=O)C3)ncnc12` [Compound 1.4, (2-(1-(8-methoxyquinazolin-4-yl)azetidin-3-yl)ethyl)aminosulfonamide] was run?
Its IC50 is 0.072 µM.

With `COc1cc2ncnc(N3CC(CCC(=O)O)C3)c2cc1OC` [Compound 1.5, 3-(1-(6,7-dimethoxyquinazolin-4-yl)azetidin-3-yl)propanoic acid] as the compound, how does the IC50 read?
The IC50 was 0.16 µM.

`COc1ccc2c(N3CC(CCNS(N)(=O)=O)C3)ncnc2c1` [Compound 1.8, (2-(1-(7-methoxyquinazolin-4-yl)azetidin-3-yl)ethyl)aminisulfonamide] was tested. Which IC50 did it give?
The IC50 was 0.008 µM.

How did the IC50 turn out when `COc1cccc2c(N3CC(CCNS(N)(=O)=O)C3)c(C#N)cnc12` [Compound 1.9, (2-(1-(3-cyano-8-methoxyquinolin-4-yl)azetidin-3-yl)ethyl)aminisulfonamide] was run?
Its IC50 is 0.032 µM.

How did the IC50 turn out when `COc1cc2ncnc(N3CC(CNS(N)(=O)=O)C3)c2cc1OC` [Compound 1.10, N-((1-(6,7-dimethoxyquinazolin-4-yl)azetidin-3-yl)methyl) aminisulfonamide] was run?
The IC50 was 0.028 µM.

With `COc1cc2nccc(N3CC(CCNS(N)(=O)=O)C3)c2cc1OC` [Compound 1.11, (2-(1-(6,7-dimethoxyquinolin-4-yl)azetidin-3-yl)ethyl)aminosulfonamide] as the compound, how does the IC50 read?
The IC50 was 0.09 µM.

How did the IC50 turn out when `COc1cc2ncc(C#N)c(N3CC(CCNS(N)(=O)=O)C3)c2cc1OC` [Compound 1.12, (2-(1-(3-cyano-6,7-dimethoxyquinolin-4-yl)azetidin-3-yl)ethyl)aminisulfonamide] was run?
The IC50 was 0.004 µM.

Which IC50 does the source give for `COc1ccc2c(N3CC(CCNS(N)(=O)=O)C3)c(C#N)cnc2c1` [Compound 1.13, 4-(3-(2-sulfamoylaminoethyl)azetidine-1-yl)-7-methoxyquinoline-3-carbonitrile] here?
Its IC50 is 0.011 µM.

How did the IC50 turn out when `Cn1ccc2ncnc(N3CC(CCNS(N)(=O)=O)C3)c21` [Compound 1.14, 4-(3-(2-sulfamoylaminoethyl)azetidine-1-yl)-5-methyl-5H-pyrrolo[3,2-d]pyrimidine] was run?
The IC50 was 0.12 µM.

`COc1cc2ncnc(N3CC4(CC(NS(N)(=O)=O)C4)C3)c2cc1OC` [Compound 1.15, 4-(6-sulfamoylamino-2-azaspiro[3.3]heptan-2-yl)-6,7-dimethoxyquinazoline] was tested. Which IC50 did it give?
Its IC50 is 0.005 µM.

With `COc1ccc2ncnc(N3CC(CCNS(N)(=O)=O)C3)c2c1` [Compound 1.16, 4-(3-(2-sulfamoylaminoethyl)azetidine-1-yl)-6-methoxyquinazoline] as the compound, how does the IC50 read?
The IC50 was 0.076 µM.

For `NS(=O)(=O)NCCC1CN(c2ncnc3cc4c(cc23)OCO4)C1` [Compound 1.18, 8-(3-(2-sulfamoylaminoethyl)azetidine-1-yl)-[1,3]dioxolo[4,5-g]quinazoline], which IC50 is on record?
Its IC50 is greater than 3 µM.

`COc1cc2ncc(C#N)c(N3CC4(CC(NS(N)(=O)=O)C4)C3)c2cc1OC` [Compound 1.24, 4-(6-sulfamoylamino-2-azaspiro[3.3]heptan-2-yl)-6,7-dimethoxyquinoline-3-carbonitrile] was tested. Which IC50 did it give?
The IC50 was 0.002 µM.

Which IC50 does the source give for `COc1cc2nc(C3CC3)nc(N3CC(CCNS(N)(=O)=O)C3)c2cc1OC` [Compound 1.25, 4-(3-(2-sulfamoylaminoethyl)azetidine-1-yl)-2-cyclopropyl-6,7-dimethoxyquinazoline] here?
Its IC50 is 0.66 µM.

With `COc1cc2ncnc(N3CC(CCP(=O)(O)O)C3)c2cc1OC` [Compound 1.29, 2-(1-(6,7-dimethoxyquinazolin-4-yl)azetidin-3-yl)ethylphosphonic acid] as the compound, how does the IC50 read?
Its IC50 is 0.892 µM.

How did the IC50 turn out when `COc1ccc2c(N3CC(CCNS(N)(=O)=O)C3)ncnc2c1OC` [Compound 1.31, 4-(3-(2-sulfamoylaminoethyl)azetidine-1-yl)-7,8-dimethoxyquinazoline] was run?
The IC50 was greater than 3 µM.

With `Cn1cnc2c(F)c3ncnc(N4CC(CCNS(N)(=O)=O)C4)c3cc21` [Compound 1.32, 8-(3-(2-sulfamoylaminoethyl)azetidine-1-yl)-4-fluoro-1-methyl-1H-imidazo[4,5-g]quinazoline] as the compound, how does the IC50 read?
The IC50 was greater than 3 µM.

With `COc1cc2nc(-c3ccc(F)cc3)nc(N3CC(CCNS(N)(=O)=O)C3)c2cc1OC` [Compound 1.33, 4-(3-(2-sulfamoylaminoethyl)azetidine-1-yl)-2-(4-fluorophenyl)-6,7-dimethoxyquinazoline] as the compound, how does the IC50 read?
Its IC50 is 0.248 µM.

`COc1ccc2c(N3CC(CCNS(N)(=O)=O)C3)nc(-c3ccccc3)nc2c1` [Compound 1.34, 4-(3-(2-sulfamoylaminoethyl)azetidine-1-yl)-7-methoxy-2-phenylquinazoline] was tested. Which IC50 did it give?
Its IC50 is greater than 3 µM.

Which IC50 does the source give for `COc1cc2nc(-c3ccn(C)n3)nc(N3CC(CCNS(N)(=O)=O)C3)c2cc1OC` [Compound 1.36, 6,7-dimethoxy-2-(1-methylpyrazol-3-yl)-4-[3-[2-(sulfamoylamino)ethyl]azetidin-1-yl]quinazoline] here?
The IC50 was 0.464 µM.

Which IC50 does the source give for `CCc1nc(N2CC(CCNS(N)(=O)=O)C2)c2ccc(OC)cc2n1` [Compound 1.37, 2-ethyl-7-methoxy-4-[3-[2-(sulfamoylamino)ethyl]azetidin-1-yl]quinazoline] here?
The IC50 was greater than 3 µM.

`COc1cc(F)cc2c(N3CC(CCNS(N)(=O)=O)C3)ncnc12` [Compound 1.38] was tested. Which IC50 did it give?
The IC50 was greater than 3 µM.

`COc1cc2ncnc(N3CC(CCNS(N)(=O)=O)C3)c2cc1Br` [Compound 1.41, 4-(3-(2-sulfamoylaminoethyl)azetidine-1-yl)-6-bromo-7-methoxyquinazoline] was tested. Which IC50 did it give?
The IC50 was 0.737 µM.

With `COc1ccc2c(N3CC(CCNS(N)(=O)=O)C3)nc(-c3cccnc3)nc2c1` [Compound 1.44, 4-(3-(2-sulfamoylaminoethyl)azetidine-1-yl)-7-methoxy-2-(pyridin-3-yl)quinazoline] as the compound, how does the IC50 read?
The IC50 was greater than 3 µM.

`COc1ccc2c(N3CC(CCNS(N)(=O)=O)C3)nc(C34CC5CC(CC(C5)C3)C4)nc2c1` [Compound 1.45, 2-(1-adamantyl)-7-methoxy-4-[3-[2-(sulfamoylamino)ethyl]azetidin-1-yl]quinazoline] was tested. Which IC50 did it give?
The IC50 was greater than 3 µM.

Which IC50 does the source give for `COc1cc2ncnc(N3CC4(CC(CB(O)O)C4)C3)c2cc1OC` [Compound 1.53, (2-(6,7-dimethoxyquinazolin-4-yl)-2-azaspiro[3.3]heptan-6-yl)methylboronic acid] here?
The IC50 was 0.122 µM.

Which IC50 does the source give for `COc1cc2ncnc(N3CC(CCNS(N)(=O)=O)C3)c2cc1C` [Compound 1.54, N-(2-[1-(7-methoxy-6-methylquinazolin-4-yl)azetidin-3-yl]ethyl)sulfuric diamide] here?
Its IC50 is 1.68 µM.
